Reference: ChEMBL document CHEMBL4616707, “Rationally Designed Covalent BCL6 Inhibitor That Targets a Tyrosine Residue in the Homodimer Interface” (ACS Med Chem Lett, 2020)
Calls of active or inactive are those of the source. The calls are words filed in the database; no cut-off is given here.

Tests used:
[1] = molecular target: B-cell lymphoma 6 protein (Homo sapiens) (UniProt P41182); assay: Binding affinity to recombinant human BCL6 (48 to 66 residues) assessed as protein compound adduct formation via Tyr58 residue after 2 hrs by LC-MS/MS analysis
[2] = molecular target: B-cell lymphoma 6 protein (Homo sapiens) (UniProt P41182); assay: Covalent inhibition of human wild type BCL6 expressed in HEK293T cells transfected with eGFP assessed as rescue of BI-3802-induced BCL6 degradation at 5 uM incubated for 30 hrs followed by […] addition and measured after 5 hrs by flow cytometry based mCherry reporter gene analysis; format: cell-based; details: HEK-293T
SUD4 = assay: Antiproliferative activity against human SU-DHL4 cells assessed as growth inhibition at 6.2 uM after 5 days by Celltiter-Glo assay; format: functional, cell-based

SMILES | Activity [1] | Activity [2] | Activity (SUD4)
O=C1Cc2cc(Nc3nc(NCc4cccc(S(=O)(=O)F)c4)ncc3Cl)ccc2N1 | Active | Active | 
CNC(=O)COc1cc2cc(Nc3nc(NCc4cccc(S(=O)(=O)F)c4)ncc3Cl)cc(OC)c2n(C)c1=O | Active | Active | Active
CNC(=O)COc1cc2cc(Nc3nc(NCc4cccc(S(C)(=O)=O)c4)ncc3Cl)cc(OC)c2n(C)c1=O |  |  | inactive
